The record followed here is PubChem BioAssay (NCI).

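How tested: cells in 96-well plates exposed to compound for 48 hours at five concentrations. Abbreviation: GI50, concentration required for 50% inhibition of growth. At the TGI there is no net growth.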

Some test systems named below: 786-0 renal; RXF 393 renal; SNB-19 CNS; COLO 205 colon; SF-539 CNS; SK-MEL-2 melanoma; A549 NSCLC; HCT-116 colon; EKVX NSCLC; MALME-3M melanoma.
Common to all, as to assay: inhibition of tumour cell growth, NCI panel, 48 h

With `O=C1C2=C(C(=O)c3c(O)ccc(O)c31)N(c1ccc(N3CCOCC3)nc1)Cc1ccccc1O2`, the GI50 was 0.206 µM with 786-0 renal; 0.148 µM in the assay with RXF 393 renal; 1.45 µM with SNB-19 CNS; 0.137 µM with COLO 205 colon; 0.276 µM in the assay on SF-539 CNS; 1.39 µM with SK-MEL-2 melanoma. Besides, the GI50 in the assay with A549 NSCLC is 2.88 µM; in the assay on HCT-116 colon, 0.0966 µM; in the assay with EKVX NSCLC, 0.27 µM; in the assay with MALME-3M melanoma it was 0.134 µM. Also, the TGI amounted to 0.45 µM with 786-0 renal; 0.308 µM with RXF 393 renal; 3.6 µM in the assay with SNB-19 CNS; 0.318 µM with COLO 205 colon; 0.944 µM in the assay with SF-539 CNS; 3.75 µM with SK-MEL-2 melanoma. The TGI in the assay on A549 NSCLC is 9.11 µM; in the assay with HCT-116 colon, 0.332 µM; with EKVX NSCLC, 1.67 µM; in the assay with MALME-3M melanoma, 0.418 µM.
For `COc1ccc2c(=O)c([Se]c3coc4cc(OC)ccc4c3=O)coc2c1`, the TGI in the assay on 786-0 renal, in the assay on RXF 393 renal, in the assay with SNB-19 CNS, with COLO 205 colon, with SF-539 CNS and with SK-MEL-2 melanoma was over 100 µM throughout. Also, the TGI in the assay with A549 NSCLC was over 100 µM; in the assay with HCT-116 colon, 44.1 µM; with EKVX NSCLC, over 100 µM; with MALME-3M melanoma it was over 100 µM.
As for `CSC1=Nc2c(c(C)c(-c3ccccc3)n2COC(CO)CO)C2=NC(=O)C(C)N12` (stereo not given), the GI50 in the assay with 786-0 renal, with RXF 393 renal, in the assay with SNB-19 CNS, in the assay on COLO 205 colon, in the assay on SF-539 CNS and in the assay with SK-MEL-2 melanoma was over 100 µM throughout. The GI50 in the assay with A549 NSCLC, in the assay with HCT-116 colon, with EKVX NSCLC and in the assay on MALME-3M melanoma was over 100 µM throughout. Besides, the TGI in the assay on 786-0 renal, in the assay on RXF 393 renal, with SNB-19 CNS, in the assay with COLO 205 colon, in the assay with SF-539 CNS and in the assay with SK-MEL-2 melanoma was over 100 µM in each case. The TGI in the assay with A549 NSCLC, in the assay with HCT-116 colon, with EKVX NSCLC and with MALME-3M melanoma was over 100 µM throughout.
Consider `CCc1cccc(C(C)CC)c1N=C(NC(=O)c1ccccc1C(=O)NC(=Nc1c(CC)cccc1C(C)CC)SC)SC` (stereo not given), for which the TGI with 786-0 renal was over 100 µM; in the assay with RXF 393 renal, over 100 µM; in the assay with SNB-19 CNS, over 100 µM; with COLO 205 colon, over 100 µM; in the assay with SF-539 CNS, 68.8 µM; in the assay on SK-MEL-2 melanoma, over 100 µM. For the same compound, the TGI in the assay with A549 NSCLC, in the assay on HCT-116 colon, in the assay on EKVX NSCLC and in the assay on MALME-3M melanoma was over 100 µM in each case.
For `C/C(CC(O)(C(F)(F)F)C(F)(F)F)=N\N`, the TGI with 786-0 renal, in the assay with RXF 393 renal, in the assay on SNB-19 CNS, with COLO 205 colon, with SF-539 CNS and with SK-MEL-2 melanoma was over 10 µM in each case. The TGI in the assay on A549 NSCLC, in the assay with HCT-116 colon, in the assay on EKVX NSCLC and in the assay with MALME-3M melanoma was over 10 µM each time.
Take `CCN(CC)CCn1ncc2ccc3c(c(=O)c4cccnc4n3CCN(CC)CC)c21`: the TGI with 786-0 renal is 4.6 µM; in the assay on RXF 393 renal it was 2.8 µM; in the assay on SNB-19 CNS, 9.97 µM; with COLO 205 colon, 1.46 µM; in the assay on SF-539 CNS it was 1.95 µM; with SK-MEL-2 melanoma, 3.51 µM. Besides, the TGI in the assay with A549 NSCLC was over 10 µM; with HCT-116 colon, over 5.81 µM; with EKVX NSCLC it was 6.83 µM; in the assay with MALME-3M melanoma it was 3.32 µM.
With `CC/C(=N\Nc1nc2ccccc2n1C)c1ccccn1`, the GI50 with 786-0 renal was 0.211 µM; in the assay on RXF 393 renal it was 0.193 µM; in the assay with SNB-19 CNS it was 0.281 µM; with COLO 205 colon, under 0.01 µM; in the assay on SF-539 CNS, 0.182 µM; with SK-MEL-2 melanoma, 0.589 µM. Besides, the GI50 in the assay with A549 NSCLC is 0.103 µM; in the assay on HCT-116 colon, under 0.01 µM; in the assay with EKVX NSCLC, 0.0369 µM; with MALME-3M melanoma it was 0.127 µM. Further, the TGI with 786-0 renal was found to be 1.52 µM; with RXF 393 renal, 1.41 µM; in the assay with SNB-19 CNS, 14.4 µM; in the assay with COLO 205 colon it was 2.94 µM; in the assay with SF-539 CNS it was 1.62 µM; in the assay on SK-MEL-2 melanoma it was 14.9 µM. In addition, the TGI with A549 NSCLC was 11.4 µM; in the assay with HCT-116 colon, 11.8 µM; with EKVX NSCLC it was 7.47 µM; in the assay on MALME-3M melanoma, 10.3 µM.
Consider `CCN1CCC[C@H]1c1cc(O)c2c(c1OC)C[C@H]1C[C@H]3[C@H](N)C(=O)C(C(N)=O)=C(O)[C@@]3(O)C(=O)C1=C2O`, for which the GI50 is 0.0504 µM in the assay on 786-0 renal; 0.0312 µM in the assay on RXF 393 renal; 0.113 µM with SNB-19 CNS; 0.0583 µM in the assay on COLO 205 colon; 0.0634 µM in the assay on SF-539 CNS; 0.0336 µM in the assay with SK-MEL-2 melanoma. Moreover, the GI50 in the assay on A549 NSCLC was 0.207 µM; with HCT-116 colon, 0.0456 µM; in the assay on EKVX NSCLC it was 0.203 µM; in the assay on MALME-3M melanoma, 0.0423 µM. The TGI in the assay with 786-0 renal is 2.19 µM; in the assay with RXF 393 renal, 0.247 µM; in the assay with SNB-19 CNS, 2.04 µM; with COLO 205 colon it was 0.682 µM; in the assay on SF-539 CNS it was 0.593 µM; in the assay with SK-MEL-2 melanoma, 0.158 µM. Moreover, the TGI in the assay with A549 NSCLC was 8.72 µM; with HCT-116 colon, 1.96 µM; in the assay on EKVX NSCLC, 3.54 µM; in the assay with MALME-3M melanoma, 0.689 µM.
Regarding `Cc1cccc(CN(C)c2ccc(CO)c(Cl)c2)c1`, the GI50 is 13.2 µM in the assay on 786-0 renal; 9.52 µM with RXF 393 renal; 28.4 µM in the assay on SNB-19 CNS; 4.86 µM in the assay on COLO 205 colon; 26.8 µM with SF-539 CNS; 8.54 µM in the assay with SK-MEL-2 melanoma. In addition, the GI50 is 4.58 µM with A549 NSCLC, 0.549 µM in the assay on HCT-116 colon, 22.6 µM with EKVX NSCLC and 19.5 µM in the assay on MALME-3M melanoma. Also, the TGI in the assay with 786-0 renal was 34.1 µM; in the assay with RXF 393 renal, 27.8 µM; in the assay with SNB-19 CNS, over 100 µM; in the assay with COLO 205 colon, 17.7 µM; in the assay with SF-539 CNS, over 77.3 µM; with SK-MEL-2 melanoma it was 36 µM. Moreover, the TGI in the assay with A549 NSCLC was determined as 34.4 µM; with HCT-116 colon, 12.3 µM; in the assay with EKVX NSCLC, 90.1 µM; in the assay on MALME-3M melanoma, 49.8 µM.
